Measured values taken from the NIST ThermoML archive (doi:10.1021/je100256w).

Test: cn = amount concentration of the nth substance listed, in mol/dm3
Conditions: 101 kPa, Liquid, Dip Cell

CCCCCCCCCCCCCCCC[N+](C)(C)CCCCC[N+](C)(C)CCCCCCCCCCCCCCCC.[Br-].[Br-] + O
electrical conductivity [S/m]
Conditions | 298 K | 303 K | 308 K | 313 K
c1 = 3.3e-06 | 6.8e-05 | 6.9e-05 | 7e-05 | 7.1e-05
c1 = 6.6e-06 | 0.000129 | 0.000135 | 0.000148 | 0.00015
c1 = 9.9e-06 | 0.00021 | 0.000219 | 0.00023 | 0.000236
c1 = 1.32e-05 | 0.000279 | 0.00029 | 0.000292 | 0.000308
c1 = 1.64e-05 | 0.000358 | 0.000376 | 0.000385 | 0.000396
c1 = 1.96e-05 | 0.000418 | 0.000432 | 0.000442 | 0.000456
c1 = 2.28e-05 | 0.000495 | 0.000505 | 0.000514 | 0.000519
c1 = 2.6e-05 | 0.000557 | 0.000564 | 0.000579 | 0.000584
c1 = 2.91e-05 | 0.000634 | 0.000646 | 0.000659 | 0.000684
c1 = 3.23e-05 | 0.000684 | 0.000699 | 0.000715 | 0.000732
c1 = 3.54e-05 | 0.000746 | 0.000766 | 0.000779 | 0.000789
c1 = 3.85e-05 | 0.000803 | 0.000816 | 0.000826 | 0.00087
c1 = 4.15e-05 | 0.000873 | 0.000873 | 0.000896 | 0.000945
c1 = 4.46e-05 | 0.000935 | 0.000935 | 0.000956 | 0.000998
c1 = 4.76e-05 | 0.001 | 0.001 | 0.00101 | 0.00108
c1 = 5.06e-05 | 0.00103 | 0.00105 | 0.00106 | 0.00112
c1 = 5.36e-05 | 0.00109 | 0.00113 | 0.00113 | 0.00115
c1 = 5.66e-05 | 0.00113 | 0.00116 | 0.00116 | 0.00121
c1 = 5.96e-05 | 0.00119 | 0.00122 | 0.00123 | 0.00125
c1 = 6.25e-05 | 0.00123 | 0.00127 | 0.00129 | 0.00129
c1 = 6.54e-05 | 0.00128 | 0.00132 | 0.00135 | 0.00135
c1 = 6.83e-05 | 0.00133 | 0.00137 | 0.00138 | 0.0014
c1 = 7.12e-05 | 0.00137 | 0.00142 | 0.00145 | 0.00144
c1 = 7.41e-05 | 0.00142 | 0.00146 | 0.00147 | 0.00148
c1 = 7.69e-05 | 0.00144 | 0.00149 | 0.0015 | 0.00152
